Experimental data: BigSolDB 2.1

CC(=O)Nc1ccc(CC(=O)O)cc1
solubility (mole fraction) (in 2-butanone, 278.15 K): 0.00496 | solubility (mole fraction) (in 2-butanone, 283.15 K): 0.00586 | solubility (mole fraction) (in 2-butanone, 288.15 K): 0.00689 | solubility (mole fraction) (in 2-butanone, 293.15 K): 0.00821 | solubility (mole fraction) (in 2-butanone, 298.15 K): 0.00975 | solubility (mole fraction) (in 2-butanone, 303.15 K): 0.0115 | solubility (mole fraction) (in 2-butanone, 308.15 K): 0.0137 | solubility (mole fraction) (in 2-butanone, 313.15 K): 0.0162 | solubility (mole fraction) (in 2-butanone, 318.15 K): 0.0192 | solubility (mole fraction) (in acetone, 278.15 K): 0.00366 | solubility (mole fraction) (in acetone, 283.15 K): 0.00441 | solubility (mole fraction) (in acetone, 288.15 K): 0.00534 | solubility (mole fraction) (in acetone, 293.15 K): 0.00646 | solubility (mole fraction) (in acetone, 298.15 K): 0.0078 | solubility (mole fraction) (in acetone, 303.15 K): 0.00942 | solubility (mole fraction) (in acetone, 308.15 K): 0.0114 | solubility (mole fraction) (in acetone, 313.15 K): 0.0136 | solubility (mole fraction) (in acetone, 318.15 K): 0.0161 | solubility (mole fraction) (in acetonitrile, 278.15 K): 0.00093 | solubility (mole fraction) (in acetonitrile, 283.15 K): 0.00116 | solubility (mole fraction) (in acetonitrile, 288.15 K): 0.00142 | solubility (mole fraction) (in acetonitrile, 293.15 K): 0.00175 | solubility (mole fraction) (in acetonitrile, 298.15 K): 0.00215 | solubility (mole fraction) (in acetonitrile, 303.15 K): 0.00262 | solubility (mole fraction) (in acetonitrile, 308.15 K): 0.00318 | solubility (mole fraction) (in acetonitrile, 313.15 K): 0.00381 | solubility (mole fraction) (in acetonitrile, 318.15 K): 0.00455 | solubility (mole fraction) (in cyclohexane, 283.15 K): 1.89e-06 | solubility (mole fraction) (in cyclohexane, 288.15 K): 2.51e-06 | solubility (mole fraction) (in cyclohexane, 293.15 K): 3.4e-06 | solubility (mole fraction) (in cyclohexane, 298.15 K): 4.44e-06 | solubility (mole fraction) (in cyclohexane, 303.15 K): 5.83e-06 | solubility (mole fraction) (in cyclohexane, 308.15 K): 7.44e-06 | solubility (mole fraction) (in cyclohexane, 313.15 K): 9.5e-06 | solubility (mole fraction) (in cyclohexane, 318.15 K): 1.21e-05 | solubility (mole fraction) (in ethanol, 278.15 K): 0.0062 | solubility (mole fraction) (in ethanol, 283.15 K): 0.00723 | solubility (mole fraction) (in ethanol, 288.15 K): 0.00851 | solubility (mole fraction) (in ethanol, 293.15 K): 0.0102 | solubility (mole fraction) (in ethanol, 298.15 K): 0.0121 | solubility (mole fraction) (in ethanol, 303.15 K): 0.0143 | solubility (mole fraction) (in ethanol, 308.15 K): 0.0171 | solubility (mole fraction) (in ethanol, 313.15 K): 0.0201 | solubility (mole fraction) (in ethanol, 318.15 K): 0.0238 | solubility (mole fraction) (in ethyl acetate, 278.15 K): 0.000627 | solubility (mole fraction) (in ethyl acetate, 283.15 K): 0.000783 | solubility (mole fraction) (in ethyl acetate, 288.15 K): 0.000985 | solubility (mole fraction) (in ethyl acetate, 293.15 K): 0.00126 | solubility (mole fraction) (in ethyl acetate, 298.15 K): 0.00156 | solubility (mole fraction) (in ethyl acetate, 303.15 K): 0.00193 | solubility (mole fraction) (in ethyl acetate, 308.15 K): 0.00238 | solubility (mole fraction) (in ethyl acetate, 313.15 K): 0.00291 | solubility (mole fraction) (in ethyl acetate, 318.15 K): 0.00357 | solubility (mole fraction) (in isopropanol, 278.15 K): 0.00293 | solubility (mole fraction) (in isopropanol, 283.15 K): 0.00353 | solubility (mole fraction) (in isopropanol, 288.15 K): 0.00437 | solubility (mole fraction) (in isopropanol, 293.15 K): 0.0054 | solubility (mole fraction) (in isopropanol, 298.15 K): 0.00666 | solubility (mole fraction) (in isopropanol, 303.15 K): 0.00823 | solubility (mole fraction) (in isopropanol, 308.15 K): 0.0101 | solubility (mole fraction) (in isopropanol, 313.15 K): 0.0123 | solubility (mole fraction) (in isopropanol, 318.15 K): 0.0149 | solubility (mole fraction) (in methanol, 278.15 K): 0.00792 | solubility (mole fraction) (in methanol, 283.15 K): 0.00927 | solubility (mole fraction) (in methanol, 288.15 K): 0.0113 | solubility (mole fraction) (in methanol, 293.15 K): 0.0138 | solubility (mole fraction) (in methanol, 298.15 K): 0.0169 | solubility (mole fraction) (in methanol, 303.15 K): 0.0207 | solubility (mole fraction) (in methanol, 308.15 K): 0.0249 | solubility (mole fraction) (in methanol, 313.15 K): 0.0303 | solubility (mole fraction) (in methanol, 318.15 K): 0.0369 | solubility (mole fraction) (in n-butanol, 278.15 K): 0.00401 | solubility (mole fraction) (in n-butanol, 283.15 K): 0.0048 | solubility (mole fraction) (in n-butanol, 288.15 K): 0.0058 | solubility (mole fraction) (in n-butanol, 293.15 K): 0.00711 | solubility (mole fraction) (in n-butanol, 298.15 K): 0.00871 | solubility (mole fraction) (in n-butanol, 303.15 K): 0.0105 | solubility (mole fraction) (in n-butanol, 308.15 K): 0.0126 | solubility (mole fraction) (in n-butanol, 313.15 K): 0.0149 | solubility (mole fraction) (in n-butanol, 318.15 K): 0.0178 | solubility (mole fraction) (in n-propanol, 278.15 K): 0.00538 | solubility (mole fraction) (in n-propanol, 283.15 K): 0.00628 | solubility (mole fraction) (in n-propanol, 288.15 K): 0.00745 | solubility (mole fraction) (in n-propanol, 293.15 K): 0.00889 | solubility (mole fraction) (in n-propanol, 298.15 K): 0.0105 | solubility (mole fraction) (in n-propanol, 303.15 K): 0.0126 | solubility (mole fraction) (in n-propanol, 308.15 K): 0.0149 | solubility (mole fraction) (in n-propanol, 313.15 K): 0.0175 | solubility (mole fraction) (in n-propanol, 318.15 K): 0.0204 | solubility (mole fraction) (in toluene, 278.15 K): 2.62e-06 | solubility (mole fraction) (in toluene, 283.15 K): 3.44e-06 | solubility (mole fraction) (in toluene, 288.15 K): 4.5e-06 | solubility (mole fraction) (in toluene, 293.15 K): 5.88e-06 | solubility (mole fraction) (in toluene, 298.15 K): 7.6e-06 | solubility (mole fraction) (in toluene, 303.15 K): 9.71e-06 | solubility (mole fraction) (in toluene, 308.15 K): 1.24e-05 | solubility (mole fraction) (in toluene, 313.15 K): 1.59e-05 | solubility (mole fraction) (in toluene, 318.15 K): 2.04e-05 | solubility (mole fraction) (in water, 278.15 K): 0.000163 | solubility (mole fraction) (in water, 283.15 K): 0.000208 | solubility (mole fraction) (in water, 288.15 K): 0.000264 | solubility (mole fraction) (in water, 293.15 K): 0.000336 | solubility (mole fraction) (in water, 298.15 K): 0.000421 | solubility (mole fraction) (in water, 303.15 K): 0.000534 | solubility (mole fraction) (in water, 308.15 K): 0.000661 | solubility (mole fraction) (in water, 313.15 K): 0.000826 | solubility (mole fraction) (in water, 318.15 K): 0.00104
